Data reported in patent US20220331219A1, “METHODS AND COMPOSITIONS FOR PROVIDING SKIN CARE BENEFITS” (DANISCO US INC., priority 2019, published 2022).
Marks after values point to notes of the source that are not given here. Values belong to the molecule of their own block, whether it stands above or below them.

How the values were obtained:
[1] = test system: Phenion® Full-Thickness (FT) Skin Model; assay: Lipidomic profile of skin model after topical treatment (LC-MS); format: cell-based, human
[2] = MVL*H2O solubility in water (equilibrium DS content); format: physicochemical; conditions: calculated to purity 100
Experimental: Solubility is one property to characterize a crystalline compound. Crystallization is possible only above solubility concentration in supersaturated syrups. Solubility determines minimal DS concentration for the crystallization at given temperatures. The solubility is determined by standard methods like analyzing the equilibrium concentration from crystal suspension.
Equilibrium DS contents were measured and calculated between 0-20° C. range (Table 14).

[3] = test system: reconstructed human epidermis (RHE); assay: Caffeine diffusion test ([14C]-caffeine diffusion, barrier function); format: cell-based; conditions: for Barrier function (% control) / [14C]-caffeine diffusion, % control / [14C]-caffeine diffusion, Mean (cpm): systemic, 7 days
Experimental: A test referred to as “caffeine diffusion test” was performed, which consists of the measurement of the effect of compounds mevalonolactone (MVL) on the skin barrier reinforcement. It is one method to measure skin barrier function (strength) as when the skin barrier has been strengthened, the amount of penetrating tracer molecules decreases (i.e. if skin is damaged more, the easier the tracer penetrates the skin). In this study, the effect of mevalonolactone, was assessed on [^14C]-caffeine diffusion through reconstructed human epidermis (RHE) under basal condition, in order to evaluate the skin barrier function. Caffeine diffusion is inversely proportional to barrier function. RHE (RHE, 0-day-old, Bioalternatives reference: EPI-Ba, batch n° 01015-515) were cultured under the following conditions: 37° C., 5% CO2, and the culture media was the Bioaltematives maintenance medium. The tested MVL concentration were 0.001%, 0.005% and 0.01% by weight of assay medium, in systemic way (added to the culture media).
RHE at day 0 were placed at the air/liquid interface in culture medium containing or not (control) the test compounds, their association or the reference (vitamin C at 200 μg/ml) (systemic application). RHE were then, incubated for 7 days with treatment renewals at day 3 and day 5. All experimental conditions were performed in n=3.
At the end of incubation (D7), radioactive caffeine ([^14C]-caffeine) was applied onto the surface of each epidermis. The radioactivity contained in subnatants was measured by liquid scintillation according to the following kinetic: 30 minutes, 1 and 2 hours.
Raw data were analyzed using Microsoft Excel® software and GraphPad PRISM® software. The inter-group comparisons were performed by an unpaired Student's t-test. The statistical analysis can be interpreted if n≥5, however for n<5 the statistical values are for information only. Formulas used in this report:
Standard error of the mean: sem=Sd/√n; Barrier function: […]

[4] = test system: female Caucasian subjects with dry skin; assay: Skin transepidermal water loss (TEWL) after topical cream application (skin barrier function); format: in vivo, human; conditions: for Δ TEWL MVL (MVL cream zone − placebo cream zone): normalized to control and placebo, 1% MVL cream pH 5.5; for Δ TEWL MVL (Dx-D0): normalized to control, placebo and baseline D0
Experimental: Mevalonolactone was obtained and purified as described herein and formulated in a standard cosmetic base, at 1% of total composition by weight, resulting in cosmetic a composition (such as but not limited to a cosmetic cream). […] The base cream formula can be any formula well known to one skilled in the art.
Two separated studies were performed. Study 1 consisted of measuring the skin transepidermal water loss after topical application of the cosmetic creams (a cream with 1% MVL of total composition by weight called “MVL cream” and the control cream which was the same cream without MVL called “placebo”) formulated at pH=5.5, the skin physiological pH.
The cosmetic formulations comprising MVL as the active ingredient and the placebo treatment were applied to 6 female Caucasian subjects with dry skin (electrical capacitance<50 A.U.) by topical application.
For 2 weeks, each subject applied the MVL containing formulation and placebo formulation according to randomization. twice a day (in the morning and in the evening), under normal conditions of use (on clean skin, by slight massage until complete penetration), on delimited zones on their forearms.
Evaluation of the efficacy of the treatment was conducted by measuring the evolution of the transepidermal water loss of the skin induced by the cosmetic compositions on the skin. Water loss of the skin was determined by measurement of Trans Epidermal Water Loss (T.E.W.L. g/m^2/h) which is a non-invasive method to assess the integrity of the stratum corneum barrier function, by quantifying the water exchanges between the skin and the environment (Loden M. et al., 1992, British J of Dermatol 1992; 126: 137-141). Damage of the stratum corneum results in an increase in the T.E.W.L., leading to a more pervious skin. This method enables to assess and compare the protective effect of cosmetic investigational compositions on the cutaneous barrier between themselves, after repeated applications. and in comparison, with a control area (non-treated) and with values obtained before any products application.
In this study, the TEWL (g/m^2/h) was assessed at 5 different time points (Day 0 (baseline before product application). […]

[5] = 13% MVL solution in DPBS, 20 μl topical, 24 hours, vs control without MVL
[6] = MVL treated skin tissue, 24 hours

Compound: C[C@@](O)(CCO)CC(=O)O [MVA, (3R)-3,5-Dihydroxy-3-methylpentanoic acid]
- cholesterol amount (in words) ([1]; MVA treated skin model): stay stable
- cholesterol/cholesterol sulfate ratio (in words) ([1]; topical MVA, exact same test condition as Example 26): decrease
- MVA treatment effect: Ratio Cholesterol/Cholesterol sulfate ([1]; topical MVA, exact same test condition as Example 26, p = 0.088): −

- solubility ([2]; 0 °C): 43.9 % DS
- solubility ([2]; 4.8 °C): 52.3 % DS
- solubility ([2]; 9.8 °C): 61.2 % DS
- solubility ([2]; 15.0 °C): 70.6 % DS
- solubility ([2]; 20.0 °C): 79.7 % DS
Compound: CC1(O)CCOC(=O)C1.O (stereo not shown) [MVL* H2O, Mevalonolactone monohydrate]

Compound: C[C@@]1(O)CCOC(=O)C1 [MVL, (R)-3-Hydroxy-3-methyl-δ-valerolactone]
- Barrier function (% control) ([3]; 0.001%, 30 min): 128 % control
- [14C]-caffeine diffusion, % control ([3]; 0.001%, 30 min): 77 % control
- [14C]-caffeine diffusion, Mean (cpm) ([3]; 0.001%, 30 min): 14907 cpm
- Barrier function (% control) ([3]; 0.001%, 1 hour): 106 % control
- [14C]-caffeine diffusion, % control ([3]; 0.001%, 1 hour): 94 % control
- [14C]-caffeine diffusion, Mean (cpm) ([3]; 0.001%, 1 hour): 48423 cpm
- Barrier function (% control) ([3]; 0.001%, 2 hours): 99 % control
- [14C]-caffeine diffusion, % control ([3]; 0.001%, 2 hours): 101 % control
- [14C]-caffeine diffusion, Mean (cpm) ([3]; 0.001%, 2 hours): 117165 cpm
- Barrier function (% control) ([3]; 0.005%, 30 min): 113 % control
- [14C]-caffeine diffusion, % control ([3]; 0.005%, 30 min): 87 % control
- [14C]-caffeine diffusion, Mean (cpm) ([3]; 0.005%, 30 min): 16927 cpm
- Barrier function (% control) ([3]; 0.005%, 1 hour): 93 % control
- [14C]-caffeine diffusion, % control ([3]; 0.005%, 1 hour): 107 % control
- [14C]-caffeine diffusion, Mean (cpm) ([3]; 0.005%, 1 hour): 55034 cpm
- Barrier function (% control) ([3]; 0.005%, 2 hours): 95 % control
- [14C]-caffeine diffusion, % control ([3]; 0.005%, 2 hours): 106 % control
- [14C]-caffeine diffusion, Mean (cpm) ([3]; 0.005%, 2 hours): 122324 cpm
- Barrier function (% control) ([3]; 0.01%, 30 min): 97 % control
- [14C]-caffeine diffusion, % control ([3]; 0.01%, 30 min): 102 % control
- [14C]-caffeine diffusion, Mean (cpm) ([3]; 0.01%, 30 min): 19700 cpm
- Barrier function (% control) ([3]; 0.01%, 1 hour): 96 % control
- [14C]-caffeine diffusion, % control ([3]; 0.01%, 1 hour): 104 % control
- [14C]-caffeine diffusion, Mean (cpm) ([3]; 0.01%, 1 hour): 53545 cpm
- Barrier function (% control) ([3]; 0.01%, 2 hours): 99 % control
- [14C]-caffeine diffusion, % control ([3]; 0.01%, 2 hours): 101 % control
- [14C]-caffeine diffusion, Mean (cpm) ([3]; 0.01%, 2 hours): 116509 cpm
- Δ TEWL MVL (MVL cream zone − placebo cream zone) ([4]; D0): 2.06 g/m²/h
- Δ TEWL MVL (Dx-D0) ([4]; D1-D0): −0.27
- Δ TEWL MVL (MVL cream zone − placebo cream zone) ([4]; D1): 1.79 g/m²/h
- Δ TEWL MVL (Dx-D0) ([4]; D3-D0): −0.74
- Δ TEWL MVL (MVL cream zone − placebo cream zone) ([4]; D3): 1.32 g/m²/h
- Δ TEWL MVL (Dx-D0) ([4]; D7-D0): −1.11
- Δ TEWL MVL (MVL cream zone − placebo cream zone) ([4]; D7): 0.95 g/m²/h
- Δ TEWL MVL (Dx-D0) ([4]; D15-D0): −1.04
- Δ TEWL MVL (MVL cream zone − placebo cream zone) ([4]; D15): 1.02 g/m²/h
- skin trans epidermal water loss (in words) ([4]; topically applied, after 2 weeks of repeated application): decreases the skin trans epidermal water loss
- MVL treatment effect: CE-Cholesterol Esters [1, 5]: +
- MVL treatment effect: CL-CardioLipin* [1, 5]: −
- MVL treatment effect: DAG-Diacylglycerol [1, 5]: −
- MVL treatment effect: HexCer-Hexosylceramide* [1, 5]: +
- MVL treatment effect: LPE* [1, 5]: −
- MVL treatment effect: LPE-0 [1, 5]: −
- MVL treatment effect: LPG-lyso-PG [1, 5]: −
- MVL treatment effect: PA-Phosphatidate (PA and LPA) [1, 5]: +
- MVL treatment effect: PC Phosphatidylcholine (PC 15:1;0_16:0;0*) [1, 5]: +
- MVL treatment effect: PC-O- Phosphatidylcholine-ether (PC-O 16:1;0/18:2;0, plasmalogen) [1, 5]: +
- MVL treatment effect: PE (species listed, *) [1, 5]: −
- MVL treatment effect: PE O-16:1;0/18:1;0* [1, 5]: −
- MVL treatment effect: PI-Phosphatidylinositol [1, 5]: −
- MVL treatment effect: Phosphatidylglycerol (PG species listed, *) [1, 5]: −
- MVL treatment effect: TAG-Triacylglycerol (TAG 47:2;0) [1, 5]: +
- Cholesterol level (in words) [1, 6]: unchanged
- PG/CL versus control samples (in words) [1, 6]: significant decrease
- ceramides level (in words) [1, 6]: unchanged
- cholesterol esters (CE) versus control samples (in words) [1, 6]: significant increase
- diacylglycerol (DAG) versus control samples (in words) [1, 6]: significant decrease
- hexosylceramide (HexCer) versus control samples (in words) [1, 6]: significant increase
- phosphatidate (PA) versus control samples (in words) [1, 6]: significant increase
- phosphatidylcholine-ether (PC-O) versus control samples (in words) [1, 6]: significant increase
- phosphatidylcholines (PC) versus control samples (in words) [1, 6]: significant increase
- phosphatidylethanolamine-ethers (LPE, LPE-O, PE-O) versus control samples (in words) [1, 6]: significant decrease
- phosphatidylinositol versus control samples (in words) [1, 6]: significant decrease
- phosphatidylserine (PS) level (in words) [1, 6]: unchanged
- ratio cholesterol/chol sulfate (in words) [1, 6]: unchanged
- sphingomyelin (SM) level (in words) [1, 6]: unchanged
- triacylglycerol (TAG) versus control samples (in words) [1, 6]: significant increase

Compound: O=C1O[C@H]([C@@H](O)CO)C(O)=C1O [Vitamin C, reference compound]
- caffeine diffusion through RHE (in words) ([3]; 200 μg/ml, systemic treatment): decreased significantly
- Barrier function (% control) ([3]; 200 microg/ml, 30 min): 171** % control
- [14C]-caffeine diffusion, % control ([3]; 200 microg/ml, 30 min): 58 % control
- [14C]-caffeine diffusion, Mean (cpm) ([3]; 200 microg/ml, 30 min): 11133 cpm
- Barrier function (% control) ([3]; 200 microg/ml, 1 hour): 148** % control
- [14C]-caffeine diffusion, % control ([3]; 200 microg/ml, 1 hour): 68 % control
- [14C]-caffeine diffusion, Mean (cpm) ([3]; 200 microg/ml, 1 hour): 34839 cpm
- Barrier function (% control) ([3]; 200 microg/ml, 2 hours): 128** % control
- [14C]-caffeine diffusion, % control ([3]; 200 microg/ml, 2 hours): 79 % control
- [14C]-caffeine diffusion, Mean (cpm) ([3]; 200 microg/ml, 2 hours): 90717 cpm
